In PubChem BioAssay (NCI):
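Growth conditions: 96-well plates. Treatment: test compound, 48 hours, 5 concentrations. Analysis: linear interpolation between bracketing concentrations; unreached endpoints set to highest concentration. Here, GI50 denotes the concentration required for 50% inhibition of growth. At the TGI there is no net growth.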

Legend:
Test in all cases: growth of human tumour cells (NCI), 48 h
[1] = test system: NCI/ADR-RES ovarian
[2] = test system: HCT-15 colon
[3] = test system: HL-60(TB) leukemia
[4] = test system: DU-145 prostate
[5] = test system: NCI-H23 lung
[6] = test system: TK-10 renal
[7] = test system: SK-MEL-2 melanoma
[8] = test system: SF-268 CNS
[9] = test system: PC-3 prostate
[10] = test system: RXF 393 renal
[11] = test system: HCC-2998 colon
[12] = test system: IGROV1 ovarian
[13] = test system: OVCAR-3 ovarian
[14] = test system: UACC-257 melanoma
[15] = test system: NCI-H522 lung
[16] = test system: SR leukemia
[17] = test system: SF-539 CNS
[18] = test system: CAKI-1 renal
[19] = test system: CCRF-CEM leukemia
[20] = test system: KM12 colon
[21] = test system: MALME-3M melanoma
[22] = test system: SNB-19 CNS
[23] = test system: OVCAR-5 ovarian
[24] = test system: NCI-H460 lung
[25] = test system: OVCAR-8 ovarian
[26] = test system: OVCAR-4 ovarian
[27] = test system: MCF7 breast
[28] = test system: MOLT-4 leukemia
[29] = test system: M14 melanoma
[30] = test system: SF-295 CNS
[31] = test system: MDA-MB-231 breast
[32] = test system: SW-620 colon
[33] = test system: K-562 leukemia
[34] = test system: SK-MEL-5 melanoma
[35] = test system: HS 578T breast
[36] = test system: UACC-62 melanoma
[37] = test system: BT-549 breast
[38] = test system: ACHN renal
[39] = test system: UO-31 renal
[40] = test system: SNB-75 CNS
[41] = test system: HCT-116 colon
[42] = test system: RPMI-8226 leukemia
[43] = test system: 786-0 renal
[44] = test system: U251 CNS
[45] = test system: HOP-92 NSCLC
[46] = test system: MDA-MB-435
[47] = test system: SK-MEL-28 melanoma
[48] = test system: LOX IMVI melanoma
[49] = test system: SN12C renal
[50] = test system: A498 renal
[51] = test system: EKVX NSCLC

## CN1CCN(CCOc2ccc(-c3cnc4c(-c5cccc(F)c5F)cnn4c3)cc2)CC1
[1]
  GI50: 2.21 µM
  TGI: 5.49 µM
[2]
  GI50: 1.48 µM
  TGI: 2.91 µM
[3]
  GI50: 1.91 µM
  TGI: 3.79 µM
[4]
  GI50: 1.69 µM
  TGI: 3.44 µM
[5]
  GI50: 1.7 µM
  TGI: 3.33 µM
[6]
  GI50: 2.01 µM
  TGI: 3.62 µM
[7]
  GI50: 15.5 µM
  TGI: 31 µM
[8]
  GI50: 2.15 µM
  TGI: 5.24 µM
[9]
  GI50: 1.96 µM
  TGI: 5.64 µM
[10]
  GI50: 1.69 µM
  TGI: 3.49 µM
[11]
  GI50: 11.7 µM
  TGI: 24.7 µM
[12]
  GI50: 1.61 µM
  TGI: 3.27 µM
[13]
  GI50: 1.71 µM
  TGI: 3.42 µM
[14]
  GI50: 1.77 µM
  TGI: 3.49 µM
[15]
  GI50: 1.59 µM
  TGI: 3.27 µM
[16]
  GI50: 0.282 µM
  TGI: 1.16 µM
[17]
  GI50: 1.74 µM
  TGI: 3.17 µM
[18]
  GI50: 1.52 µM
  TGI: 2.91 µM
[19]
  GI50: 1.55 µM
  TGI: 3.81 µM
[20]
  GI50: 1.72 µM
  TGI: 3.39 µM
[21]
  GI50: 1.53 µM
  TGI: 3.01 µM
[22]
  GI50: 1.91 µM
  TGI: 3.88 µM
[23]
  GI50: 1.99 µM
  TGI: 4.43 µM
[24]
  GI50: 1.67 µM
  TGI: 3.19 µM
[25]
  GI50: 2.1 µM
  TGI: 5.26 µM
[26]
  GI50: 1.28 µM
  TGI: 2.95 µM
[27]
  GI50: 1.32 µM
  TGI: 2.95 µM
[28]
  GI50: 1.6 µM
  TGI: 3.53 µM
[29]
  GI50: 1.71 µM
  TGI: 3.2 µM
[30]
  GI50: 1.8 µM
  TGI: 3.33 µM
[31]
  GI50: 1.6 µM
  TGI: 3.36 µM
[32]
  GI50: 1.86 µM
  TGI: 3.59 µM
[33]
  GI50: 1.66 µM
  TGI: 3.53 µM
[34]
  GI50: 1.67 µM
  TGI: 3.07 µM
[35]
  GI50: 1.91 µM
  TGI: 4.74 µM
[36]
  GI50: 1.84 µM
  TGI: 3.61 µM
[37]
  GI50: 1.57 µM
  TGI: 3.15 µM
[38]
  GI50: 1.62 µM
  TGI: 2.97 µM
[39]
  GI50: 1.25 µM
  TGI: 2.55 µM
[40]
  GI50: 1.41 µM
  TGI: 2.73 µM
[41]
  GI50: 1.66 µM
  TGI: 3.04 µM
[42]
  GI50: 1.45 µM
  TGI: 4.01 µM
[43]
  GI50: 1.63 µM
  TGI: 3.07 µM
[44]
  GI50: 1.44 µM
  TGI: 2.94 µM
[45]
  GI50: 4.14 µM
  TGI: 26.4 µM
[46]
  GI50: 1.68 µM
  TGI: 3.07 µM
[47]
  GI50: 1.77 µM
  TGI: 3.26 µM
[48]
  GI50: 1.8 µM
  TGI: 3.34 µM
[49]
  GI50: 2.08 µM
  TGI: 4.67 µM
[50]
  GI50: 5.41 µM
  TGI: 19.7 µM
[51]
  GI50: 1.59 µM
  TGI: 3.75 µM
